Values quoted from earlier work in patent publication US9533050B2, “Vaginal ring including meloxicam and an agent for modulating the release of the active principle, which can be used as a continuous-use contraceptive in women” (LABORATORIOS ANDROMACO S.A., priority 2011, dated 2017).

What was measured:
ovulation = conditions: women
follicular rupture = conditions: 25 mg oral once daily for 9 days
[1] = 15 mg tablets orally, older women

For `COc1ccc2c(c1)c(CC(=O)O)c(C)n2C(=O)c1ccc(Cl)cc1` [Indomethacin, indomethacin], the delay of ovulation (ovulation) is given as 2 to 12 days.

For `Cc1cnc(NC(=O)C2=C(O)c3ccccc3S(=O)(=O)N2C)s1` [meloxicam], the maximum plasma concentrations (7.5 mg orally, tablets) is listed as 1.05 µg/mL, the “time of maximum plasma concentration” value (7.5 mg orally, tablets) is listed as 4.9 h and the plasma concentrations [1] is listed as 3200 ng/mL. The “time of plasma concentration” value [1] was 6 h.

For `CS(=O)(=O)c1ccc(C2=C(c3ccccc3)C(=O)OC2)cc1` [rofecoxib], the inhibition of ovulation (follicular rupture) is listed as “not sufficient to inhibit ovulation” and the “women with delay in the late follicular rupture” value (follicular rupture) is listed as 4 of the 6.
